Earlier results as cited in patent US20090239822A1, “Process for the preparation of esters of diacerein with hyaluronic acid and pharmaceutical compositions containing such esters” (priority 2006, published 2009).

Conditions: rhein from the pro-drug diacerein

concentration in the synovial liquid: 1 to 10 µM
SMILES: O=C(O)c1cc(O)c2c(c1)C(=O)c1cccc(O)c1C2=O [rhein]
